Reference: US20130165368A1, “ANTIMICROBIAL COMPOUNDS” (priority 2010, published 2013)
≈ marks a conversion by molar mass, not a printed value. Like-named read-outs stand apart in the source and are kept apart here.

Experiments:
Assay type in all cases: cell-based
MRSA EMRSA 15 1729/98 = experiment: MIC agar dilution, MRSA strain 42; details: Staphylococcus aureus
Method: (§1) Molar equivalent concentrations were used to allow comparison between compounds of differing molecular mass. Due to weighing difficulties, any compound in solid form was melted in a water bath prior to dilution. To make ten-times strength concentrations, which takes into account agar dilution, 0.0352 mmol of each compound was weighed into plastic universal bottles and 4 mL of sterile distilled water (SDW) was added. To produce a homogenous emulsion the universals were vortexed; once achieved the emulsions were serial diluted by adding 2 mL to 2 mL of SDW.
(§2) For every 100 mL of Isosensitest agar (IST) (CM0471; Oxoid, Basingstoke, England), 3.1 g of the IST powder was added to 100 mL SDW (as per manufacturer's instructions) and sterilised for 15 minutes at 121° C. Once sterilised, the molten agar was cooled to 50° C. in a water-bath. Subsequently 4.8 g of CCEY powder (BC2160; Bioconnections, Wetherby, England), also known as Brazier's medium, was added to 100 mL SDW for every 100 mL of agar needed. This was then sterilised for 15 minutes at 121° C. Once sterilised the molten agar was cooled to 50° C. in a water-bath and 4 mL of egg-yolk emulsion (S2073; TCS Biosciences Ltd, Buckingham, United Kingdom) and 1 mL of lysed defibrinated horse blood (HB035; TCS Biosciences Ltd, Buckingham, United Kingdom) were also added for every 100 mL needed. Horse blood lysis is achieved by dilution to half concentration with SDW; when fully lysed the mixture will turn dark red in colour.
(§3) 18 mL agar was added to each universal and then poured into sterile Petri dishes. This step creates a 1/10 dilution resulting in agar plates of the required strength. Control plates for each set of strains were created by adding 18 mL of agar to 2 mL of SDW.
(§4) Suspensions of each bacterial species were prepared with a density equal to that of a 0.5 McFarland standard using a densitometer. All suspensions were made using sterile distilled water and fresh 18-20 hour cultures. As a 0.5 McFarland standard contains 1.5×10^8 CFU/mL and the multipoint inoculators applies 1 μL spots of liquid, each bacterial suspension was diluted 1/15 (20 μL suspension to 280 μL sterile distilled water).
(§5) Bacterial suspensions were prepared from fresh 18-24 hour cultures as previously described. 1 μL of each strain was inoculated onto all 100 agar plates containing a different chemical concentration and the 2 control plates. This was done using a multipoint inoculator which inoculates 20 strains per plate. All plates were incubated for 22 hours at 37° C. in aerobic conditions.
(§6) Each plate was examined for bacterial growth after 22 and 48 hours, with each being incubated in between examinations. A positive result was recorded as growth of ≧10 colonies. A negative result was recorded as growth of <10 colonies as this is equivalent to 99.9% inhibition. The lowest concentration of chemical that inhibited growth was recorded as the MIC. The results are recorded in Table IV below, where the numbers are quoted in mmol/L.
(§7) Given the positive performance of the ethoxylates of lauryl alcohol in reducing the MIC for a number of the micro-organisms tested, further MIC testing of Laureth-1 [C12E1] through to Laureth-8 [C12E8] was conducted on each of the following: • 10 strains of vancomycin-resistant enterococci (VRE)—listed in Table V below; and • 20 strains of methicillin-resistant Staphylococcus aureus (MRSA)—listed in Table VI.
(§8) The alkanol, alkanol derivatives, agar plates, and inocula were all prepared in the same way as described above.
(§9) The plates were examined in the same manner as described above and the results are recorded in Table VII below, where the numbers are quoted in mmol/L.

[1] = test system: Enterococcus faecalis (VRE) PHLS URINE 2000; experiment: MIC agar dilution, VRE strain 21
Method: as §1, §2, §3, §4, §5, §6, §7, §8, §9

MRSA EMRSA 15 19972/98 = experiment: MIC agar dilution, MRSA strain 39; details: Staphylococcus aureus
Method: as §1, §2, §3, §4, §5, §6, §7, §8, §9

[2] = test system: MRSA GER 131/98 (Sger Iidc); experiment: MIC agar dilution, MRSA strain 35; details: Staphylococcus aureus
Method: as §1, §2, §3, §4, §5, §6, §7, §8, §9

Escherichia coli = experiment: MIC agar dilution, micro-organism 1 (10418); details: Escherichia coli 10418, read-out: MIC
Summary of the method: (§10)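 Agar dilution in Isosensitest/CCEY agar with egg yolk and lysed horse blood; compounds as aqueous emulsions (myristyl and lauryl alcohol with 1-methyl-2-pyrrolidone and Tween 20). 1 µL spots of 1/15-diluted 0.5 McFarland suspensions, 37 °C aerobic, read at 22 and 48 h; MIC (mmol/L) is lowest concentration giving <10 colonies.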

[3] = test system: Staphylococcus epidermidis; experiment: MIC agar dilution, micro-organism 14 (11047); details: Staphylococcus epidermidis 11047, read-out: MIC
Summary of the method: as §10

Staphylococcus aureus = experiment: MIC agar dilution, micro-organism 13 (6571); details: Staphylococcus aureus, Staphylococcus aureus 6571, read-out: MIC
Summary of the method: as §10

Enterococcus faecium = experiment: MIC agar dilution, micro-organism 16 (7171); details: Enterococcus faecium 7171, read-out: MIC
Summary of the method: as §10

[4] = test system: MRSA GER 1966/97 (Hanover IIIc); experiment: MIC agar dilution, MRSA strain 36; details: Staphylococcus aureus
Method: as §1, §2, §3, §4, §5, §6, §7, §8, §9

Candida glabrata = experiment: MIC agar dilution, micro-organism 20 (3943); details: Nakaseomyces glabratus, Candida glabrata 3943, read-out: MIC
Summary of the method: as §10

MRSA EMRSA 16 07924/95 = experiment: MIC agar dilution, MRSA strain 49; details: Staphylococcus aureus
Method: as §1, §2, §3, §4, §5, §6, §7, §8, §9

MRSA EMRSA 15 1758/98 = experiment: MIC agar dilution, MRSA strain 43; details: Staphylococcus aureus
Method: as §1, §2, §3, §4, §5, §6, §7, §8, §9

MRSA EMRSA 16 00998/95 = experiment: MIC agar dilution, MRSA strain 47; details: Staphylococcus aureus
Method: as §1, §2, §3, §4, §5, §6, §7, §8, §9

Structure (SMILES) | MIC (MRSA EMRSA 15 1729/98; 22 hrs) | MIC (MRSA EMRSA 15 1729/98; 48 hrs) | MIC ([1]; 22 hrs) | MIC ([1]; 48 hrs) | MIC (MRSA EMRSA 15 19972/98; 22 hrs) | MIC (MRSA EMRSA 15 19972/98; 48 hrs) | MIC ([2]; 22 hrs) | MIC ([2]; 48 hrs) | MIC (Escherichia coli; 22 hrs) | MIC (Escherichia coli; 48 hrs) | MIC ([3]; 22 hrs) | MIC ([3]; 48 hrs) | MIC (Staphylococcus aureus; 22 h, 22 hrs) | MIC (Staphylococcus aureus; 48 h, 48 hrs) | MIC (Enterococcus faecium; 22 hrs) | MIC (Enterococcus faecium; 48 hrs) | MIC ([4]; 22 hrs) | MIC ([4]; 48 hrs) | MIC (Candida glabrata; 22 h, 22 hrs) | MIC (Candida glabrata; 48 h, 48 hrs) | further results
CCCCCCCCCCCCOCCOCCOCCOCCOCCO [L5, Pentaethylene Glycol Monododecyl Ether] | 110 µM (≈ 44.7 µg/mL) | 110 µM (≈ 44.7 µg/mL) | 110 µM (≈ 44.7 µg/mL) | 110 µM (≈ 44.7 µg/mL) | 110 µM (≈ 44.7 µg/mL) | 110 µM (≈ 44.7 µg/mL) | 110 µM (≈ 44.7 µg/mL) | 110 µM (≈ 44.7 µg/mL) | > 880 µM | > 880 µM | 110 µM (≈ 44.7 µg/mL) | 110 µM (≈ 44.7 µg/mL) | 110 µM (≈ 44.7 µg/mL) | 110 µM (≈ 44.7 µg/mL) | 220 µM (≈ 89.5 µg/mL) | 220 µM (≈ 89.5 µg/mL) | 110 µM (≈ 44.7 µg/mL) | 110 µM (≈ 44.7 µg/mL) | 110 µM (≈ 44.7 µg/mL) | 220 µM (≈ 89.5 µg/mL) | MIC (MRSA EMRSA 16 07924/95; 22 hrs): 110 µM (≈ 44.7 µg/mL); MIC (MRSA EMRSA 16 07924/95; 48 hrs): 110 µM (≈ 44.7 µg/mL); MIC (MRSA EMRSA 15 1758/98; 22 hrs): 110 µM (≈ 44.7 µg/mL); MIC (MRSA EMRSA 15 1758/98; 48 hrs): 110 µM (≈ 44.7 µg/mL); MIC (MRSA EMRSA 16 00998/95; 22 hrs): 110 µM (≈ 44.7 µg/mL); MIC (MRSA EMRSA 16 00998/95; 48 hrs): 110 µM (≈ 44.7 µg/mL)
CCCCCCCCCCCCOCCOCCOCCOCCOCCOCCO [L6, Hexaethylene Glycol Monododecyl Ether] | 110 µM (≈ 49.6 µg/mL) | 110 µM (≈ 49.6 µg/mL) | 220 µM (≈ 99.1 µg/mL) | 220 µM (≈ 99.1 µg/mL) | 110 µM (≈ 49.6 µg/mL) | 110 µM (≈ 49.6 µg/mL) | 110 µM (≈ 49.6 µg/mL) | 110 µM (≈ 49.6 µg/mL) | > 880 µM | > 880 µM | 110 µM (≈ 49.6 µg/mL) | 110 µM (≈ 49.6 µg/mL) | 110 µM (≈ 49.6 µg/mL) | 110 µM (≈ 49.6 µg/mL) | 440 µM (≈ 198 µg/mL) | 220 µM (≈ 99.1 µg/mL) | 110 µM (≈ 49.6 µg/mL) | 110 µM (≈ 49.6 µg/mL) | 220 µM (≈ 99.1 µg/mL) | 220 µM (≈ 99.1 µg/mL) | MIC (MRSA EMRSA 16 07924/95; 22 hrs): 110 µM (≈ 49.6 µg/mL); MIC (MRSA EMRSA 16 07924/95; 48 hrs): 110 µM (≈ 49.6 µg/mL); MIC (MRSA EMRSA 15 1758/98; 22 hrs): 110 µM (≈ 49.6 µg/mL); MIC (MRSA EMRSA 15 1758/98; 48 hrs): 110 µM (≈ 49.6 µg/mL); MIC (MRSA EMRSA 16 00998/95; 22 hrs): 220 µM (≈ 99.1 µg/mL); MIC (MRSA EMRSA 16 00998/95; 48 hrs): 440 µM (≈ 198 µg/mL)
